In brackets after ≈: the same amount, converted by molar mass.
Experiments:
[1] = tested on: Mycobacterium tuberculosis TN1618; assay type: cell-based
[2] = tested on: Mycobacterium tuberculosis TN565; assay type: cell-based

SMILES | MIC TN1618 (RESISTANT) [1] [µg/mL] | MIC TN565 (RESISTANT) [2] [µg/mL]
CC(N)C(=O)N(C)C(C)C(NC(=O)C(Cc1ccc(F)cc1)NC(=O)NC(Cc1ccc(O)cc1)C(=O)O)C(=O)NCC1CC(O)C(n2ccc(=O)[nH]c2=O)O1 [Compound 157, 1-[5′-[(2S,3S)-N^3-L-Alanyl-N^2-[N-[[(1S)-1-carboxy-4-hydroxyphenethyl]carbamoyl]-L-4-fluorophenylalanyl]-N^3-methyl-2,3-diaminobutyramido]-3′,5′-dideoxy-α-L-arabinofuranosyl]uracil] | 10 (≈ 12.7 µM) | 10 (≈ 12.7 µM)
CC(C)C[C@H](NC(=O)N[C@@H](Cc1c[nH]c2ccccc12)C(=O)O)C(=O)N[C@H](C(=O)NC[C@H]1C[C@@H](O)[C@H](n2ccc(=O)[nH]c2=O)O1)[C@H](C)N(C)C(=O)CN [Compound 109] | 10 (≈ 13.5 µM) | 10 (≈ 13.5 µM)
CC(N)C(=O)N(C)C(C)C(NC(=O)C(Cc1ccc(C(F)(F)F)cc1)NC(=O)NC(Cc1c[nH]c2ccccc12)C(=O)O)C(=O)NCC1CC(O)C(n2ccc(=O)[nH]c2=O)O1 [Compound 146, 1-[5′-[(2S,3S)-N^3-L-Alanyl-N^2-[N-[[(1S)-1-carboxy-2-indol-3-ylethyl]carbamoyl]-L-4-(trifluoromethyl)phenylalanyl]-N^3-methyl-2,3-diaminobutyramido]-3′,5′-dideoxy-α-L-arabinofuranosyl]uracil] | 10 (≈ 11.7 µM) | 10 (≈ 11.7 µM)
CSCCC(NC(=O)NC(Cc1ccc(O)cc1)C(=O)O)C(=O)NC(C(=O)NCC1CC(O)C(n2ccc(=O)[nH]c2=O)O1)C(C)N(C)C(=O)C(C)N [Compound 115, 1-[5′[(2S,3S)-N^3-L-Alanyl-N^2-[N-[[(1S)-1-carboxy-4-hydroxyphenethyl)-carbamoyl]-L-methionyl]-N^3-methyl-2,3-diaminobutyramido]-3′,5′-dideoxy-α-L-arabinofuranosyl]uracil] | 30 (≈ 40 µM) | >30
CC(C)CC(N)C(=O)N(C)C(C)C(NC(=O)C(Cc1ccccc1)NC(=O)NC(Cc1c[nH]c2ccccc12)C(=O)O)C(=O)NCC1CC(O)C(n2ccc(=O)[nH]c2=O)O1 [Compound 159, 1-[5′-[(2S,3S)-N^2-[N-[[(1S)-1-Carboxy-2-indol-3-ylethyl]carbamoyl]-L-phenylalanyl]l-N^3-L-leucyl-N^3-methyl-2,3-diaminobutyramido]-3′,5′-dideoxy-α-L-arabinofuranosyl]uracil] | 10 (≈ 12 µM) | 30 (≈ 36.1 µM)
CC(N)C(=O)N(C)C(C)C(NC(=O)C(Cc1ccccc1)NC(=O)NC(Cc1c[nH]c2ccccc12)C(=O)O)C(=O)NCC1CC(O)C(n2ccc(=O)[nH]c2=O)O1 [Compound 164, 1-[5′-[(2S,3S)-N^3-L-Alanyl-N^2-[N-[[(1S)-1-carboxy-2-indol-3-ylethyl]carbamoyl]-L-phenylalanyl]-N^3-methyl-2,3-diaminobutyramido]-3′,5′-dideoxy-α-L-arabinofuranosyl]uracil] | 10 (≈ 12.7 µM) | 10 (≈ 12.7 µM)
CC(N)C(=O)N(C)C(C)C(NC(=O)C(Cc1ccccc1)NC(=O)NC(Cc1ccc2ccccc2c1)C(=O)O)C(=O)NCC1CC(O)C(n2ccc(=O)[nH]c2=O)O1 [Compound 133, 1-[5′-[(2S,3S)-N^3-L-Alanyl-N^2-[N-[[(1S)-1-carboxy-2-naphthalenethyl]carbamoyl]-L-phenylalanyl]-N^3-methyl-2,3-diaminobutyramido]-3′,5′-dideoxy-α-L-arabinofuranosyl]uracil] | 10 (≈ 12.5 µM) | 30 (≈ 37.5 µM)
C[C@H](NC(=O)N[C@@H](Cc1c[nH]c2ccccc12)C(=O)O)C(=O)N[C@H](C(=O)N/C=C1/C[C@@H](O)[C@H](n2ccc(=O)[nH]c2=O)O1)[C@H](C)N(C)C(=O)[C@@H](N)Cc1cccc(O)c1 [Pacidamycin 4, reference compound] | >30 | >30
CC(N)C(=O)N(C)C(C)C(NC(=O)C(Cc1ccc(F)cc1)NC(=O)NC(Cc1c[nH]c2ccccc12)C(=O)O)C(=O)NCC1CC(O)C(n2ccc(=O)[nH]c2=O)O1 [Compound 158, 1-[5′-[(2S,3S)-N^3-L-Alanyl-N^2-[N-[[(1S)-1-carboxy-2-indol-3-ylethyl]carbamoyl]-L-4-fluorophenylalanyl]-N^3-methyl-2,3-diaminobutyramidol-3′,5′-dideoxy-α-L-arabinofuranosyl]uracil] | 10 (≈ 12.4 µM) | 10 (≈ 12.4 µM)
CC(N)C(=O)N(C)C(C)C(NC(=O)C(Cc1ccc(-c2ccccc2)cc1)NC(=O)NC(Cc1c[nH]c2ccccc12)C(=O)O)C(=O)NCC1CC(O)C(n2ccc(=O)[nH]c2=O)O1 [Compound 155, 1-[5′-[(2S,3S)-N^3-L-Alanyl-N^2-[N-[[(1S)-1-carboxy-2-indol-3-ylethyl)carbamoyl]-L-4-biphenylalanyl]-N^3-methyl-2,3-diaminobutyramidol-3′,5′-dideoxy-α-L-arabinofuranosyl]uracil] | 10 (≈ 11.5 µM) | 10 (≈ 11.5 µM)

Source: US6482921B1, “Uridyl peptide antibiotic (UPA) derivatives, their synthesis and use” (Essential Therapeutics, Inc., priority 1999, dated 2002)
